Changes are numbered by the printed parent chain.
Experiments:
Format in all cases: binding
[1] = biological target: T1, alanine:glyoxylate aminotransferase (AGT), AGT WT (major allele) (Homo sapiens, UniProt P21549); test: filtration ([…] kDa cut-off) and UV absorption of released PMP; details: holo-enzyme 36 µM monomer with L-Ala, 1 h, 25°C
T1 construct: gene AGXT; His-tagged full-length AGT from pCOLDII, expressed in E. coli BL21, IMAC and SEC; about 90 kDa dimer
T1 sequence (P21549 1-392): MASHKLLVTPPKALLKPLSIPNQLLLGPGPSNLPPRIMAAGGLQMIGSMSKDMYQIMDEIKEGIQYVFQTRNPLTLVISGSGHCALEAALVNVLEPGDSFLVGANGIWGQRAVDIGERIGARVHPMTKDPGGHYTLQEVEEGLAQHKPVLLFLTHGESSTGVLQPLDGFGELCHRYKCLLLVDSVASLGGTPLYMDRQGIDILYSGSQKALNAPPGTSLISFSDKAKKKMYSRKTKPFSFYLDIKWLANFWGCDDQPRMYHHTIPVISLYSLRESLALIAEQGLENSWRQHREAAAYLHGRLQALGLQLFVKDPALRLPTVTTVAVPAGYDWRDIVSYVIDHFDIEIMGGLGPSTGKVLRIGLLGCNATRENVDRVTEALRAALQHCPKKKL

[2] = biological target: T2, alanine:glyoxylate aminotransferase (AGT), AGT WT (major allele) (Homo sapiens, UniProt P21549, I340M); test: fluorescence equilibrium titration of apo-AGT; details: read-out: K d(PLP) (nM) ^b
T2 construct: gene AGXT; His-tagged full-length AGT from pCOLDII, expressed in E. coli BL21, IMAC and SEC; about 90 kDa dimer
T2 sequence (P21549 1-392 I340M): T1 sequence (P21549 1-392) with I340M
Excerpt: (§1) fluorescence equilibrium titration of apo-AGT on alanine:glyoxylate aminotransferase (AGT), AGT WT (major allele)

[3] = biological target: T3, alanine:glyoxylate aminotransferase (AGT), AGT WT (major allele) (Homo sapiens, UniProt P21549, I340M/P11L); test: fluorescence equilibrium titration of apo-AGT; details: read-out: K d(PLP) (nM) ^b
T3 construct: gene AGXT; His-tagged full-length AGT from pCOLDII, expressed in E. coli BL21, IMAC and SEC; about 90 kDa dimer
T3 sequence (P21549 1-392 P11L/I340M): T1 sequence (P21549 1-392) with P11L, I340M
Excerpt: as §1

[4] = biological target: T4, alanine:glyoxylate aminotransferase (AGT), AGT WT (major allele) (Homo sapiens, UniProt P21549, A295T/I340M/P11L); test: fluorescence equilibrium titration of apo-AGT; details: read-out: K d(PLP) (nM) ^b
T4 construct: gene AGXT; His-tagged full-length AGT from pCOLDII, expressed in E. coli BL21, IMAC and SEC; about 90 kDa dimer
T4 sequence (P21549 1-392 P11L/A295T/I340M): T1 sequence (P21549 1-392) with P11L, A295T, I340M
Excerpt: as §1

[5] = biological target: T5, alanine:glyoxylate aminotransferase (AGT), AGT WT (major allele) (Homo sapiens, UniProt P21549, I340M/P11L/R197Q); test: fluorescence equilibrium titration of apo-AGT; details: read-out: K d(PLP) (nM) ^b
T5 construct: gene AGXT; His-tagged full-length AGT from pCOLDII, expressed in E. coli BL21, IMAC and SEC; about 90 kDa dimer
T5 sequence (P21549 1-392 P11L/R197Q/I340M): T1 sequence (P21549 1-392) with P11L, R197Q, I340M
Excerpt: as §1

[6] = biological target: T6, alanine:glyoxylate aminotransferase (AGT), AGT WT (major allele) (Homo sapiens, UniProt P21549, A368T/I340M/P11L); test: fluorescence equilibrium titration of apo-AGT; details: read-out: K d(PLP) (nM) ^b
T6 construct: gene AGXT; His-tagged full-length AGT from pCOLDII, expressed in E. coli BL21, IMAC and SEC; about 90 kDa dimer
T6 sequence (P21549 1-392 P11L/I340M/A368T): T1 sequence (P21549 1-392) with P11L, I340M, A368T
Excerpt: as §1

[7] = biological target: T1, alanine:glyoxylate aminotransferase (AGT), AGT WT (major allele); test: fluorescence equilibrium titration of apo-AGT; details: read-out: K d(PLP) (nM) ^b
Excerpt: as §1

| % PMP released [1] | Kd [2] [nM] | Kd [3] [nM] | Kd [4] [nM] | Kd [5] [nM] | Kd [6] [nM] | Kd [7] [nM] | SMILES |
| --- | --- | --- | --- | --- | --- | --- | --- |
| ~ 3% | – | – | – | – | – | – | Cc1ncc(COP(=O)(O)O)c(CN)c1O [PMP] |
| – | 172 ± 42 | 157 ± 15 | 71 ± 16 | 156 ± 34 | 134 ± 26 | 100 ± 30 | Cc1ncc(COP(=O)(O)O)c(C=O)c1O [PLP] |
